Source: US20240041042A1, “1-(PYRIDYL)-5-AZINYLPYRAZOLE DERIVATIVES, AND THEIR USE FOR CONTROL OF UNDESIRED PLANT GROWTH” (Bayer Aktiengesellschaft, priority 2020, published 2024)
Like-named read-outs stand apart in the source and are kept apart here.

Assays:
Format in all cases: in vivo
[1] = system: Amaranthus retroflexus (AMARE); experiment: Post-emergence herbicidal action against AMARE
Procedure, shortened: (§1)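 Values are percent visual activity (0% like control, 100% plants dead) after about 3 weeks in the greenhouse. Treatment: post-emergence spray at one-leaf stage, 600 l/ha spray volume, 0.5% additive, doses 320 g/ha or lower.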

[2] = system: Lolium rigidum (LOLRI); experiment: Post-emergence herbicidal action against LOLRI
Procedure, shortened: as §1

[3] = system: Echinochloa crus-galli (ECHCG); experiment: Post-emergence herbicidal action against ECHCG
Procedure, shortened: as §1

[4] = system: Oryza sativa (ORYSA); settings: crop plant compatibility, effect in comparison to untreated controls
Procedure, shortened: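 Effects were read visually as % versus untreated controls (0% = no effect, 100% = death) about 3 weeks post-treatment. Application was a post-emergence spray at the one-leaf stage of WP/EC formulations with 0.5% additive at 600 l/ha. Different dosages are denoted a, b and c.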

[5] = system: Alopecurus myosuroides (ALOMY); experiment: Post-emergence herbicidal action against ALOMY; settings: visual rating about 3 weeks after treatment vs untreated controls (100% = plants have died, 0% = like control plants)
Procedure, shortened: as §1

[6] = system: Abutilon theophrasti (ABUTH); experiment: Post-emergence herbicidal action against ABUTH; settings: visual rating about 3 weeks after treatment vs untreated controls (100% = plants have died, 0% = like control plants)
Procedure, shortened: as §1

[7] = system: Verconica persica (VERPE); experiment: Pre-emergence herbicidal action against VERPE; settings: dosage 320 g/ha
Procedure, shortened: (§2)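 Dosages of 320 g/ha or less; pre-emergence; WP or EC in aqueous spray, 0.5% additive, 600 l/ha; greenhouse; visual % effect after ~3 wk relative to control pots.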

[8] = system: Echinochloa crus-galli (ECHCG); experiment: Pre-emergence herbicidal action against ECHCG
Procedure, shortened: as §2

[9] = system: Avena fatua (AVEFA); experiment: Post-emergence herbicidal action against AVEFA; settings: visual rating about 3 weeks after treatment
Procedure, shortened: as §1

[10] = system: Pharbitis purpurea (PHBPU); experiment: Post-emergence herbicidal action against PHBPU
Procedure, shortened: as §1

[11] = system: Avena fatua (AVEFA); experiment: Pre-emergence herbicidal action against AVEFA; settings: visual scoring after about 3 weeks vs untreated controls
Procedure, shortened: as §2

[12] = system: Lolium rigidum (LOLRI); experiment: Pre-emergence herbicidal action against LOLRI
Procedure, shortened: as §2

[13] = system: Abutilon theophrasti (ABUTH); experiment: Pre-emergence herbicidal action against ABUTH; settings: Dosage column 320 g/ha (title prints 3200 g/ha); scored visually after about 3 weeks; 100% = plants have died
Source text: Seeds of monocotyledonous and dicotyledonous weed plants and crop plants are placed in plastic or organic planting pots and covered with soil. The compounds of the invention, formulated in the form of wettable powders (WP) or as emulsion concentrates (EC), are then applied to the surface of the covering soil as aqueous suspension or emulsion with addition of 0.5% additive at a water application rate equivalent to 600 l/ha. After the treatment, the pots are placed in a greenhouse and kept under good growth conditions for the trial plants. After about 3 weeks, the effect of the preparations is scored visually in comparison with untreated controls as percentages. For example, 100% activity=the plants have died, 0% activity=like control plants.
Tables A1 to A13 below show the effects of selected compounds of the general formula (I) on various harmful plants and at an application rate corresponding to 320 g/ha or lower, which were obtained by the experimental procedure mentioned above. The appendices “a”, “b” and “c” give differentiation by dosage used with otherwise the same harmful plants tested.

[14] = system: Viola tricolor (VIOTR); experiment: Post-emergence herbicidal action against VIOTR
Procedure, shortened: as §1

[15] = system: Verconica persica (VERPE); experiment: Post-emergence herbicidal action against VERPE
Procedure, shortened: as §1

[16] = system: Alopecurus myosuroides (ALOMY); experiment: Pre-emergence herbicidal action against ALOMY; settings: scored visually after about 3 weeks, 100% = plants have died
Procedure, shortened: as §2

[17] = system: Setaria viridis (SETVI); experiment: Pre-emergence herbicidal action against SETVI
Procedure, shortened: as §2

[18] = system: Viola tricolor (VIOTR); experiment: Pre-emergence herbicidal action against VIOTR
Procedure, shortened: as §2

[19] = system: Polygonum convolvulus (POLCO); experiment: Post-emergence herbicidal action against POLCO
Procedure, shortened: as §1

[20] = system: Polygonum convolvulus (POLCO); experiment: Pre-emergence herbicidal action against POLCO
Procedure, shortened: as §2

[21] = system: Setaria viridis (SETVI); experiment: Post-emergence herbicidal action against SETVI
Procedure, shortened: as §1

[22] = system: Matricaria inodora (MATIN); experiment: Pre-emergence herbicidal action against MATIN; settings: dosage 320 g/ha
Procedure, shortened: as §2

[23] = system: Amaranthus retroflexus (AMARE); experiment: Pre-emergence herbicidal action against AMARE; settings: visual scoring after about 3 weeks vs untreated controls
Procedure, shortened: as §2

[24] = system: Pharbitis purpurea (PHBPU); experiment: Pre-emergence herbicidal action against PHBPU; settings: dosage 320 g/ha
Procedure, shortened: as §2

[25] = system: Digitaria sanguinalis (DIGSA); experiment: Post-emergence herbicidal action against DIGSA; settings: visual rating about 3 weeks after treatment
Procedure, shortened: as §1

[26] = system: Zea mays (ZEAMX); settings: pre-emergence, 80 g/ha, crop plant compatibility, in comparison to untreated controls
Procedure, shortened: (§3)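 Crop injury rated visually in percent against untreated plants roughly 3 weeks after treatment (0% no effect, 100% plants dead). Compounds, as WP or EC with 0.5% additive in 600 l/ha water, were applied to the covering soil right after sowing; greenhouse growth. Suffixes a, b, c denote different dosages.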

[27] = system: Oryza sativa (ORYSA); settings: pre-emergence, 80 g/ha, crop plant compatibility, in comparison to untreated controls
Procedure, shortened: as §3

[28] = system: Digitaria sanguinalis (DIGSA); experiment: Pre-emergence herbicidal action against DIGSA; settings: dosage 320 g/ha
Procedure, shortened: as §2

[29] = 80 g/ha, visual rating about 3 weeks after treatment vs untreated controls (100% = plants have died, 0% = like control plants)
[30] = 320 g/ha, visual rating about 3 weeks after treatment

Post-emergence action against ORYSA in % ([4]; 80 g/ha) [%] | Compound | Post-emergence action against AMARE in % [1, 29] [%] | Post-emergence action against AMARE in % [1, 30] [%] | Post-emergence action against ECHCG in % ([3]; dosage 80 g/ha) [%] | Post-emergence action against ECHCG in % ([3]; dosage 320 g/ha) [%] | Post-emergence action against ALOMY in % ([5]; 320 g/ha) [%] | Post-emergence action against ABUTH in % ([6]; 320 g/ha) [%] | Pre-emergence action against VERPE in % [7] [%] | Pre-emergence action against ECHCG in % ([8]; dosage 320 g/ha) [%] | Post-emergence action against AVEFA in % ([9]; 320 g/ha) [%] | Post-emergence action against PHBPU in % ([10]; dosage 320 g/ha) [%] | Pre-emergence action against AVEFA in % ([11]; 320 g/ha) [%] | Post-emergence action against VIOTR in % ([14]; 320 g/ha) [%] | Post-emergence action against VERPE in % ([15]; 320 g/ha, VERPE) [%] | Pre-emergence action against ALOMY ([16]; 320 g/ha) [%] | Pre-emergence action against VIOTR in % ([18]; 320 g/ha, Viola tricolor) [%] | Pre-emergence action against VIOTR in % ([18]; dosage 80 g/ha) [%] | Pre-emergence action against POLCO in % ([20]; dosage 320 g/ha) [%] | Post-emergence action against SETVI in % ([21]; dosage 320 g/ha) [%] | Pre-emergence action against AMARE in % ([23]; 320 g/ha) [%] | further results
0 | COC(=O)CNC(=O)[C@@H](C)Oc1nn(-c2ccccn2)c(-c2ccc(F)nc2)c1Cl [Example I-339] | 90 | 90 | 90 | 90 | 100 | 90 | 100 | 100 | 90 | 80 | 100 | 90 | 90 | 100 | 100 | 100 | 100 | 90 | 100 | Post-emergence action against LOLRI in % ([2]; dosage 80 g/ha): 90%; Post-emergence action against LOLRI in % ([2]; dosage 320 g/ha): 90%; Post-emergence action against ALOMY in % ([5]; 80 g/ha): 90%; Post-emergence action against ABUTH in % ([6]; 80 g/ha): 80%; Post-emergence action against AVEFA in % ([9]; 80 g/ha): 90%; Pre-emergence action against AVEFA in % ([11]; 80 g/ha): 100%; Pre-emergence action against LOLRI in % ([12]; dosage 80 g/ha): 100%; Pre-emergence action against LOLRI in % ([12]; dosage 320 g/ha): 100%; Pre-emergence action against ABUTH [13]: 90%; Post-emergence action against VIOTR in % ([14]; 80 g/ha): 90%; Post-emergence action against VERPE in % ([15]; dosage 80 g/ha): 80%; Pre-emergence action against ALOMY ([16]; 80 g/ha): 100%; Pre-emergence action against SETVI in % ([17]; dosage 80 g/ha): 100%; Pre-emergence action against SETVI in % ([17]; dosage 320 g/ha): 100%; Post-emergence action against POLCO in % ([19]; dosage 80 g/ha): 90%; Post-emergence action against POLCO in % ([19]; dosage 320 g/ha): 90%; Pre-emergence action against POLCO in % ([20]; dosage 80 g/ha): 90%; Post-emergence action against SETVI in % ([21]; dosage 80 g/ha): 90%; Pre-emergence action against MATIN in % [22]: 100%; Pre-emergence action against AMARE in % ([23]; 80 g/ha): 100%
10 | COC(=O)COc1nn(-c2ncccc2C(F)(F)F)c(-c2cncc(F)c2)c1I [Example I-223] |  |  | 80 | 90 | 80 | 80 | 80 | 80 | 80 | 80 | 100 | 80 | 80 | 90 | 100 | 90 | 80 | 80 | 90 | Pre-emergence action against PHBPU in % [24]: 80%; Post-emergence action against DIGSA in % ([25]; 80 g/ha): 80%; Post-emergence action against DIGSA in % ([25]; 320 g/ha): 90%; Post-emergence action against ORYSA in % ([4]; 320 g/ha): 20%; Post-emergence action against PHBPU in % ([10]; dosage 80 g/ha): 80%; Pre-emergence action against ZEAMX in % [26]: 20%; Pre-emergence action against ORYSA in % [27]: 10%; Pre-emergence action against DIGSA in % [28]: 80%; Post-emergence action against POLCO in % ([19]; dosage 80 g/ha): 80%; Post-emergence action against POLCO in % ([19]; dosage 320 g/ha): 80%
0 | COC(=O)[C@@H](C)Oc1nn(-c2ccnc(Cl)c2)c(-c2ccc(F)nc2)c1Br [III-22] | 90 | 90 | 100 | 100 | 100 | 90 | 100 | 100 | 100 | 80 | 100 | 90 | 90 | 100 | 100 | 90 | 100 | 100 | 100 | Post-emergence action against LOLRI in % ([2]; dosage 320 g/ha): 100%; Post-emergence action against ALOMY in % ([5]; 80 g/ha): 100%; Post-emergence action against ABUTH in % ([6]; 80 g/ha): 90%; Pre-emergence action against ECHCG in % ([8]; dosage 80 g/ha): 100%; Post-emergence action against AVEFA in % ([9]; 80 g/ha): 100%; Pre-emergence action against AVEFA in % ([11]; 80 g/ha): 80%; Pre-emergence action against LOLRI in % ([12]; dosage 80 g/ha): 100%; Pre-emergence action against LOLRI in % ([12]; dosage 320 g/ha): 100%; Pre-emergence action against ABUTH [13]: 100%; Post-emergence action against VIOTR in % ([14]; 80 g/ha): 90%; Post-emergence action against VERPE in % ([15]; dosage 80 g/ha): 80%; Pre-emergence action against ALOMY ([16]; 80 g/ha): 100%; Pre-emergence action against SETVI in % ([17]; dosage 80 g/ha): 100%; Pre-emergence action against SETVI in % ([17]; dosage 320 g/ha): 100%; Post-emergence action against SETVI in % ([21]; dosage 80 g/ha): 100%; Pre-emergence action against MATIN in % [22]: 100%; Pre-emergence action against AMARE in % ([23]; 80 g/ha): 90%
